# System: ATF4 translation
# Assay: ATF4 Cell Based Assay (ATF4 reporter assay, NanoLuc luciferase fused to ATF4 5'-UTR, thapsigargin-induced stress)
# Conditions: SH-SY5Y-ATF4-NanoLuc cells, 200 nM thapsigargin, overnight (typically 19 hours); average of a set of two or more experimental runs; read-out: average ATF4 pathway inhibitory activity IC50
# Source text: The ATF4 reporter assay measures the effect of thapsigargin-induced cellular stress on ATF4 expression. For this reporter assay, a stable cell line was created by transfecting SH-SY5Y cells with a plasmid containing the NanoLuc® luciferase gene fused to the 5′-UTR of ATF4, under the control of the CMV promoter. The ATF4 5′-UTR contains two open reading frames which mediate the cellular stress-dependent translation of the reporter gene. Clones stably expressing the reporter construct were isolated and selected based on the luminescence response to thapsigargin and inhibition of this signal by test compounds. Briefly, SH-SY5Y-ATF4-NanoLuc cells were challenged with thapsigargin to determine the stress effect with or without test compounds. Cells were propagated in DMEM/F12 growth media containing 10% FBS (Invitrogen 10999-141) and 0.5 mg/mL geneticin (Corning 30-234-CR). Aliquots of cells were cryopreserved in dialyzed FBS containing 10% DMSO.
# Test compounds were prepared in neat DMSO at a concentration of 10 mM. Assay plates were prepared by adding 250 nL of compound stock solution to test wells in a 384-well white tissue culture-treated plate (Greiner 781073). For inhibition curves, compounds were diluted using a three-fold serial dilution and tested at 11 concentrations (10 μM-0.17 nM).
# Aliquots of frozen cells were thawed with a 37C water bath. The cells were washed using DMEM/F12 (1:1) (1×) (Gibco 11039-021). The cells were re-suspended in the DMEM/F12 and the suspension was counted. A final suspension of 7.5e5 cells/ml was prepared.
# A volume of 20 uL of cell suspension was added to compound plates (15K cells/well). Cells were incubated for 1 hour at 37° C. A volume of 5 μL of 1 uM Thapsigargin solution was added to each well, resulting in a final concentration of 200 nM. Assay plates were then incubated at 37 C overnight, typically for 19 hours.
# The measurement of luciferase produced by the ATF4 constructs was measured using Nano-Glo Luciferase Assay reagent, Promega N1150. (The components of the Promega kit are: Nano-Glo® Luciferase Assay Substrate, N113C, Nano-Glo® Luciferase Assay Buffer, N1128.) The buffer is brought to room temperature, and a solution of 50:1 buffer:substrate were prepared. The cell plates were equilibrated to room temperature. A volume of 20 microliters/well of the mixed Nano-Glo reagent were dispensed into assay and control wells. The plates were read on a Viewlux plate reader.
row,Structure (SMILES),IC50 [nM]
1,"O=C(COc1ccc(Cl)cc1)NC12CC(COC(=O)Nc3ccc(Cl)cc3)(C1)C2 [Example 1, (3-(2-(4-Chlorophenoxy)acetamido)bicyclo[1.1.1]pentan-1-yl)methyl (4-chlorophenyl)carbamate]",25
2,"O=C(COc1ccc(Cl)c(F)c1)NC12CC(COC(=O)Nc3ccc(Cl)cc3)(C1)C2 [Example 3, (3-(2-(4-chloro-3-fluorophenoxy)acetamido)bicyclo[1.1.1]pentan-1-yl)methyl (4-chlorophenyl)carbamate]",25
3,"O=C(COc1ccc(Cl)cc1)NC12CC(CNC(=O)Nc3ccc(Cl)cc3)(C1)C2 [Example 4, 2-(4-Chlorophenoxy)-N-(3-((3-(4-chlorophenyl)ureido)methyl)bicyclo[1.1.1]pentan-1-yl)acetamide]",10
4,"O=C(COc1ccc(Cl)cc1)NC12CC(CNC(=S)Nc3ccc(Cl)cc3)(C1)C2 [Example 6a, 2-(4-chlorophenoxy)-N-(3-((3-(4-chlorophenyl)thioureido)methyl)bicyclo[1.1.1]pentan-1-yl)acetamide]",126
5,"O=C(COc1ccc(Cl)c(C(F)(F)F)c1)NC12CC(COC(=O)Nc3ccc(Cl)c(F)c3)(C1)C2 [Example 8a, (3-(2-(4-chloro-3-(trifluoromethyl)phenoxy)acetamido)bicyclo[1.1.1]pentan-1-yl)methyl (4-chloro-3-fluorophenyl)carbamate]",79
6,"O=C(COc1ccc(Cl)c(F)c1)NC12CC(COC(=O)Nc3ccc(Cl)c(Cl)c3)(C1)C2 [Example 10, (3-(2-(4-chloro-3-fluorophenoxy)acetamido)bicyclo [1.1.1]pentan-1-yl)methyl (3,4-dichlorophenyl) carbamate]",25
7,"O=C(COc1ccc(Cl)c(Cl)c1)NC12CC(COC(=O)Nc3ccc(Cl)cc3)(C1)C2 [Example 12, (3-(2-(3,4-dichlorophenoxy)acetamido)bicyclo [1.1.1]pentan-1-yl)methyl (4-chlorophenyl) carbamate]",32
8,"O=C(COc1ccc(F)cc1)NC12CC(COC(=O)Nc3ccc(Cl)c(F)c3)(C1)C2 [Example 14, (3-(2-(4-fluorophenoxy)acetamido)bicyclo [1.1.1]pentan-1-yl)methyl (4-chloro-3-fluorophenyl) carbamate]",79
9,"O=C(COc1ccc(F)c(F)c1)NC12CC(COC(=O)Nc3ccc(F)c(F)c3)(C1)C2 [Example 16, (3-(2-(3,4-difluorophenoxy)acetamido)bicyclo [1.1.1]pentan-1-yl)methyl (3,4-difluorophenyl) carbamate]",158

# The remaining lines, values ahead:
row,IC50 [nM],Structure (SMILES)
1,1260,"O=C(CNc1ccc(Cl)cc1)NC12CC(COC(=O)Nc3ccc(Cl)c(F)c3)(C1)C2 [Example 18, (3-(2-((4-chlorophenyl)amino)acetamido)bicyclo [1.1.1]pentan-1-yl) methyl (4-chloro-3-fluorophenyl carbamate]"
2,158,"O=C(Nc1ccc(Cl)c(F)c1)OCC12CC(NC(=O)c3ccc4c(c3)OC(F)(F)O4)(C1)C2 [Example 19, (3-(2,2-difluorobenzo[d] [1,3]dioxole-5-carboxamido)bicyclo[1.1.1]pentan-1-yl)methyl (4-chloro-3-fluorophenyl) carbamate]"
3,6,"O=C(COc1ccc(Cl)cc1)NC12CC(CNC(=O)Nc3ccc(Cl)c(Cl)c3)(C1)C2 [Example 22, 2-(4-chlorophenoxy)-N-(3-((3-(3,4-dichlorophenyl)ureido)methyl)bicyclo[1.1.1]pentan-1-yl)acetamide]"
4,8,"O=C(COc1ccc(Cl)c(F)c1)NC12CC(CNC(=O)Nc3ccc(Cl)c(Cl)c3)(C1)C2 [Example 23, 2-(4-chloro-3-fluorophenoxy)-N-(3-((3-(3,4-dichlorophenyl)ureido)methyl)bicyclo[1.1.1]pentan-1-yl)acetamide]"
5,80,"O=C(COc1ccc(Cl)c(F)c1)NC12CCC(COC(=O)Nc3ccc(Cl)c(F)c3)(C1)C2 [Example 26, (4-(2-(4-chloro-3-fluorophenoxy)acetamido)bicyclo[2.1.1]hexan-1-yl)methyl (4-chloro-3-fluorophenyl) carbamate]"
